Laboratory results from article PMC8488277, “Permeability Data of Organosulfur Garlic Compounds Estimated by Immobilized Artificial Membrane Chromatography: Correlation Across Several Biological Barriers” (Frontiers in Chemistry, 2021).
Like-named read-outs stand apart in the source and are kept apart here.

Tests used:
[1] = IAM-HPLC chromatographic capacity factor (log k' IAM); assay type: physicochemical; details: IAM.PC.MG 12 µm column; isocratic ACN/0.035 M phosphate buffer pH 6.8 (30:70 v/v), 0.5 ml/min; k'=(Tr–T0)/T0; mean of 2–4 determinations
Description: Chromatographic analysis was performed using a Shimadzu LC 20A chromatograph coupled to a diode array detector, operated at a range of 210–260 nm, depending on the analyzed compound. A biomimetic commercially available column was used in all experiments: IAM. PC.MG12 µm (150 × 4.6 mm) was purchased from Regis Chemical Company (Morton Grove, IL).
OSC separation conditions under IAM-HPLC were adapted from [Luco et al. (2003]) and [Barbato et al. (1998]), with modifications. The chromatographic mode consisted in an isocratic elution used as the mobile phase ACN/0.035 M phosphate buffer −pH 6.8− (30:70 (v/v)) at 0.5 ml min^−1. The column dead time (T0) was estimated by ascorbic acid retention time which was measured at 210 nm. The obtained retention data were used to calculate the chromatographic parameter corresponding to the capacity factor k’ as follows: k’ = (Tr–T0)/T0. All capacity factors given represent the mean of 2–4 determinations of each sample solution.
For this study, we considered 28 phytochemical compounds containing sulfur-based groups. […] Most of these compounds are garlic-derived substances with bioactive functions. […] We chose them because of their bioactive functionality and their similar metabolism within the plants and human body. Each analytical standard stock solution was prepared in the mobile phase at concentrations ranging from 100 to 800 µg ml^−1, depending on the solubility of the compound and their DAD detector response. Peak identification in samples was carried out by comparing retention times with reference standards.

[2] = parameters: method as in Egen-Schwind et al., 1992; details: ref Egen-Schwind et al., 1992, cited from earlier work; for lipophilicity (relative, in words): 1,3- vs 1,2-vinyldithiin; for elimination / tissue accumulation: serum, kidney, fat tissue
[3] = parameters: method as in Torres-Palazzolo et al. (2018); details: ref Torres-Palazzolo et al. (2018); cited from earlier work
[4] = cited from earlier work

| Compound | Log (k'IAM) [1] | further results |
| --- | --- | --- |
| C[S+]([O-])C[C@H](N)C(=O)O (single isomer, unassigned; (+)) [Methiin, (+)-S-methyl-L-cysteine sulfoxide] | −1.922 |  |
| CC=C[S+]([O-])C[C@H](N)C(=O)O (stereo in doubt) [Isoalliin, (+)-S-trans-1-propenyl-L-cysteine sulfoxide] | −0.734 |  |
| C=CC1CC=CSS1 (stereo not drawn) [1,2-vinyldithiin] |  | lipophilicity (relative, in words) [2]: more lipophilic; elimination / tissue accumulation [2]: showed a tendency to accumulate in fat tissues |
| C=CC1SC=CCS1 (stereo not drawn) [2-vinyldithiin, 2-Vinyl-4H-1,3-dithiine] | 0.237 | permeation through the intestine [3]: less than 5%; lipophilicity (relative, in words) [2]: less lipophilic; elimination / tissue accumulation [2]: rapidly eliminated from serum, the kidney, and fat tissue |
| C=CCS[S+]([O-])CC=C (stereo not drawn) [Allicin, diallyl thiosulfinate] | −0.409 | permeation through the intestine [3]: less than 5%; cellular permeability (in words) ([4]; ref Rahman, 2007): can easily permeate cell membranes of phospholipids bilayers; metabolism (in words) ([4]; ref Rahman, 2007): rapidly metabolized and transformed into other active compounds |
| C=CCN=C=S [Allyl isothiocyanate] | 0.118 |  |
| C=CCS [Allyl mercaptan] | −0.197 |  |
| C=CCSC [Allyl methyl sulfide, allyl methyl sulfide] | −1.021 |  |
| S=C=NCc1ccccc1 [Benzyl isothiocyanate] | 0.571 |  |
| C=CCSSSCC=C [Diallyl Trisulfide, diallyl trisulfide] | 0.781 | cellular permeability (in words) ([4]; not told): high cellular permeability |
| C=CCSSCC=C [Diallyl disulfide, diallyl disulfide] | 0.554 | cellular permeability (in words) ([4]; ref Rahman, 2007): high cellular permeability |
| C=CCSCC=C [Diallyl sulfide, diallyl sulfide] | 0.222 | permeation through the intestine [3]: less than 5% |
| CSSC [Dimethyl disulfide, dimethyl disulfide] | −0.017 |  |
| C=CCSS/C=C/C[S+]([O-])CC=C (stereo not drawn) [E-Ajoene] | 0.022 |  |
| CCSSCC [Ethyl disulfide] | 0.420 |  |
| CCSCC [Ethyl sulfide] | −0.099 |  |
| c1coc(CSSCc2ccco2)c1 [Furfuryl disulfide, furfuryl disulfide] | 0.713 |  |
| OCc1c[nH]c2ccccc12 [Indole-3-carbinol, indole-3-carbinol] | −0.204 |  |
| CCCSSSC [Methyl Propyl Trisulfide] | 0.810 |  |
| S=C=NCCc1ccccc1 [Phenethyl isothiocyanate] | 0.663 |  |
| S=C=Nc1ccccc1 [Phenyl isothiocyanate] | 0.746 |  |
| CCCSSCCC [Propyl disulfide] | 0.913 |  |
| C[S+]([O-])CCCCN=C=S (stereo not drawn) [Sulforaphane, sulforaphane] | −0.514 |  |
| C[S+]([O-])/C=C/CCN=C=S (stereo not drawn) [Sulforaphene, S-sulforaphene] | −0.521 |  |
| C=CCSS/C=C\C[S+]([O-])CC=C (stereo not drawn) [Z-Ajoene] | 0.015 |  |
| S-allyl-L-cysteine | −1.102 | cellular permeability (in words) ([4]; ref Rahman, 2007): high cellular permeability |
| S-methyl-L-cysteine | −1.322 |  |
| S-propyl-L-cysteine | −1.645 |  |
